# In patent US12521393B2, “Cytotoxicity targeting chimeras for CCR2-expressing cells” (GLAXOSMITHKLINE INTELLECTUAL PROPERTY DEVELOPMENT LIMITED, priority 2021, dated 2026):
# Several values for one entry are separate records, joined by “and”; a condition that tells them apart may be missing. Equal entries are not always repeated.
# Columns and labels:
# [1] = test system: endogenous target monocytes in human PBMC; experiment: PBMC ex vivo monocyte depletion flow cytometry assay (Example 200); type: cell-based; details: with anti-cotinine antibody (SEQ ID NO: 11/12), 18-24 hours, EC50 in molar; for EC50: read-out: Ex Vivo Depletion Assay pEC50 (converted)
# Summary of the method: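 Monocyte depletion is reported as pEC50, averaged or given individually across runs, and read by flow cytometry staining CD45, CD14 and CD4 with a viability dye. Compounds, diluted four-fold over 11 points from 1 mM DMSO stocks, were combined with 30 μg/mL Fc-enhanced anti-cotinine antibody and human PBMC, then incubated 18-24 h at 37° C.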
# [2] = target: T1, CHOK1 cells engineered to overexpress human CCR2 (Homo sapiens, UniProt P41597); experiment: Antibody dependent cellular cytotoxicity (ADCC) reporter assay (Example 199); type: cell-based; details: with anti-cotinine antibody (SEQ ID NO: 11/12), Jurkat FcγRIIIa NFAT-luciferase reporter cells, 12-18 hours, EC50 in molar, average or individual runs; for EC50: read-out: ADCC Reporter Assay pEC50 (converted)
# T1 construct: expressed in transfected cells; host or cells: CHOK1
# Procedure: An antibody dependent cellular cytoxocity reporter assay was conducted using the following four assay components: (i) ARM compound of Formula (I) targeting CCR2 (concentrations ranging from […] to 10 μM) (ii) anti-cotinine antibody having a heavy chain sequence of SEQ ID NO: 11 and a light chain sequence of SEQ ID NO: 12 (rabbit variable region with human IgG1 Fc domain containing a DE mutation (S239D/1332E)) (concentrations ranging from 0.01 μg/mL to 200 μg/mL); (iii) target cells: CHOK1 cells engineered to overexpress either human CCR2 (typically 1000-20,000 cells per well) and (iv) reporter cells: Jurkat cells engineered to express FcγRIIIa with the reporter gene luciferase under the control of the NFAT promoter (typically 3000-75,000 cells per well). Reagents were combined in a final volume of 20 μL in a 384-well tissue culture treated plate. All four assay components were incubated together for about 12-18 hours. Thereafter, BioGlo Detection reagent (Promega) was added to the wells to lyse the cells and provide a substrate for the luciferase reporter protein. Luminescence signal was measured on a microplate reader and signal: background was calculated by dividing the signal of a test well by the signal obtained when no heterobivalent compound of Formula (I) was added. EC50 calculations were done using Graphpad Prism Software, specifically a nonlinear regression curve fit (Y=Bottom+(Top−Bottom)/(1+10A((LogEC50−X)*HillSlope))).
# ARMs compounds of Formula (I) of the invention were tested for ADCC activity in the above assay in or more experimental runs and the results are shown in Table 3 below. Potency of the compounds of Formula (I) of the invention is reported as a pEC50 value. The pEC50 value is the negative log of the EC50 value, wherein the EC50 value is the half maximal effective concentration measured in molar (M). For compounds tested in more than one experimental run, the pEC50 value is reported as an average.
# [3] = target: anti-cotinine antibody (SEQ ID NO: 11/12, rabbit variable region with human IgG1 Fc DE mutation); experiment: SPR binding of anti-cotinine antibody to ARM compounds, Biacore T200, 37° C. (Example 202); details: SPR Biacore T200, 37° C., pH 7.4, antibody SEQ ID NO: 11/12 captured on protein A; Kd in molar
# Summary of the method: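 Run at 37 °C in 10 mM HEPES pH 7.4, 150 mM NaCl, 0.005% P20, 1% DMSO, with compounds titrated from 200 nM (five 3-fold steps) over protein A–captured antibody. A 1:1 kinetic model on double-referenced data gave rate constants, Kd as koff/kon and residence time 1/koff; results as pKd, run-averaged.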
# [4] = Blood drug concentration analysis by LC-MS/MS after IV dosing with anti-cotinine antibody (Example 201); type: in vivo; details: C57 background, human CCR2 knock-in, mouse; hCCR2 knock-in mice, IV 0.1 mpk compound + 10 mpk anti-cotinine antibody, whole blood, 48 hours post-dose; read-out: Exposure of Compound of Formula (I) 48 hours post-dose
# Procedure: After bleeding, each mouse was sacrificed by cervical dislocation. […] Flow Cytometry Analysis:
# Samples were analyzed on Q-Trap. […] The total run time was 2 minutes.
# [5] = test system: CCR2 expressing cells (CD11b+Ly6c+Hi) in peripheral blood; experiment: In vivo depletion assay, flow cytometry of peripheral blood (Example 201); parameters: species or system human CCR2 knock-in mice (C57 background); details: hCCR2 knock-in mice, IV 0.1 mpk compound + 10 mpk anti-cotinine antibody (SEQ ID NO: 13/14), peripheral blood at 48 hr
# Summary of the method: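 Flow cytometry of blood collected at study termination quantified percent depletion of CD11b+Ly6c+Hi cells and CCR2 expression, using surface markers CD45, CD3, CD11b, Ly6C, human CCR2 after Fc block, with 7AAD viability stain. Compound given in saline:DMSO:PBS formulation, optionally combined with anti-cotinine antibody, incubated 30 min before administration.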
SMILES,Ex Vivo Depletion Assay pEC50 [1],ADCC Reporter Assay pEC50 [2],pKd of Antibody for ARM Compound of Formula (I) [3],EC50 [1] [nM],concentration at 48 h [4] [ng/mL],EC50 [2],% Depletion of CCR2 expressing cells [5] [%]
"CN1C(=O)C[C@H](C(=O)NCCCOCCCNC(=O)CCCC(=O)NC2CCC(C(=O)N[C@@H]3C[C@H](NC(C)(C)C)CC[C@@H]3N3CC[C@H](Nc4ncnc5ccc(C(F)(F)F)cc45)C3=O)CC2)[C@H]1c1cccnc1 (stereo partly drawn) [Example 22, N1-((1R,4r)-4-(((1R,2S,5R)-5-(tert-Butylamino)-2-((S)-2-oxo-3-((6-(trifluoromethyl)quinazolin-4-yl)amino)pyrrolidin-1-yl)cyclohexyl)carbamoyl)cyclohexyl)-N5-(3-(3-((2S,3S)-1-methyl-5-oxo-2-(pyridin-3-yl)pyrrolidine-3-carboxamido)propoxy)propyl)glutaramide]",9.2,9 and 9.3,9.2495,–,–,–,–
"CC(C)N(C)[C@@H]1CC[C@H](N2CC[C@H](Nc3ncnc4ccc(C(F)(F)F)cc34)C2=O)[C@H](NC(=O)[C@H]2CC[C@H](N3CCN(S(=O)(=O)C4CCN(C(=O)[C@H](C)NC(=O)[C@H]5CC(=O)N(C)[C@@H]5c5cccnc5)CC4)CC3)CC2)C1 [Example 70, (2S,3S)-N-((S)-1-(4-((4-((1R,4S)-4-(((1R,2S,5R)-5-(isopropyl(methyl)amino)-2-((S)-2-oxo-3-((6-(trifluoromethyl)quinazolin-4-yl)amino)pyrrolidin-1-yl)cyclohexyl)carbamoyl)cyclohexyl)piperazin-1-yl)sulfonyl)piperidin-1-yl)-1-oxopropan-2-yl)-1-methyl-5-oxo-2-(pyridin-3-yl)pyrrolidine-3-carboxamide]",–,–,–,0.1,2.3,0.794 nM,30.51
"CC(C)N(C)[C@@H]1CC[C@H](N2CC[C@H](Nc3ncnc4ccc(C(F)(F)F)cc34)C2=O)[C@H](NC(=O)[C@H]2CC[C@@H](N3CCN(S(=O)(=O)C4CCN(C(=O)[C@H](C)NC(=O)[C@H]5CC(=O)N(C)[C@@H]5c5cccnc5)CC4)CC3)CC2)C1 [Example 71, (2S,3S)-N-((S)-1-(4-((4-((1S,4R)-4-(((1R,2S,5R)-5-(Isopropyl(methyl)amino)-2-((S)-2-oxo-3-((6-(trifluoromethyl)quinazolin-4-yl)amino)pyrrolidin-1-yl)cyclohexyl)carbamoyl)cyclohexyl)piperazin-1-yl)sulfonyl)piperidin-1-yl)-1-oxopropan-2-yl)-1-methyl-5-oxo-2-(pyridin-3-yl)pyrrolidine-3-carboxamide]",–,–,–,0.794,1,10 nM,35.25
"CC(C)N(CCOCCOCCC(=O)N[C@H]1CC[C@@H](C(=O)N[C@@H]2C[C@H](N(C)C(C)C)CC[C@@H]2N2CC[C@H](Nc3ncnc4ccc(C(F)(F)F)cc34)C2=O)CC1)C(=O)CCNC(=O)[C@H]1CC(=O)N(C)[C@@H]1c1cccnc1 [Example 178, (2S,3S)-N-(3-(Isopropyl(2-(2-(3-(((1S,4s)-4-(((1R,2S,5R)-5-(isopropyl(methyl)amino)-2-((S)-2-oxo-3-((6-(trifluoromethyl)quinazolin-4-yl)amino)pyrrolidin-1-yl)cyclohexyl)carbamoyl)cyclohexyl)amino)-3-oxopropoxy)ethoxy)ethyl)amino)-3-oxopropyl)-1-methyl-5-oxo-2-(pyridin-3-yl)pyrrolidine-3-carboxamide]",–,–,–,0.398,–,0.501 nM and 0.126 nM,–
